{"source": "patent US8507499B2", "about": "“Substituted indole/indazole-pyrimidinyl compounds” (Confluence Life Sciences, Inc., priority 2010, dated 2013)", "molecular_target": "p38/MK2 (Homo sapiens, UniProt Q16539)", "sequence (Q16539 whole entry)": "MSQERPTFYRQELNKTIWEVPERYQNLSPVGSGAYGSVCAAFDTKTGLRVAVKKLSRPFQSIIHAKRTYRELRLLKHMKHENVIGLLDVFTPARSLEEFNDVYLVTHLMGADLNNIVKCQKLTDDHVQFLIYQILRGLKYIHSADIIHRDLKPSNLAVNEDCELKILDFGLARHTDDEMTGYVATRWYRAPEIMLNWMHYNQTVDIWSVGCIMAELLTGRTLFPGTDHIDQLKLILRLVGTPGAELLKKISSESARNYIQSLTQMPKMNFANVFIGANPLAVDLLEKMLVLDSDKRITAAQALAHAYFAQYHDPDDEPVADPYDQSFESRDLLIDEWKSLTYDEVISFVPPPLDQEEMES", "assay": "p38α/MK2 cascade assay (phosphorylation of Hsp27 peptide, Caliper LabChip 3000)", "format": "biochemical", "details": "Hsp27 peptide 1 μM, MgATP 10 μM, two values printed in one cell", "method": "The novel, MK2 substrate-selective inhibitory mechanism of compounds is evaluated in enzyme assays comparing inhibitor potency in blocking p38/MK2 versus p38/PRAK induced phosphorylation of an HSP-27 derived peptide substrate. The ability of compounds to inhibit activated phospho-p38α is evaluated using a p38α/MK2 and a p38α/PRAK cascade assay format. The kinase activity of p38α is determined by its ability to phosphorylate GST-MK2 or GST-PRAK. Activation of MK2 or PRAK by p38α is quantitated by measuring the phosphorylation of a fluorescently-labeled, MK2 specific peptide substrate, Hsp27 peptide (FITC-KKKALSRQLSVAA). The phosphorylation of the Hsp27 peptide is quantified using the Caliper LabChip 3000. Kinase reactions are carried out in a 384-well plate (Matrical, MP101-1-PP) in 20 mM HEPES pH 7.5, 10 mM MgCl2, 0.0005% Tween-20, 0.01% BSA, 1 mM DTT, and 2% DMSO. […] The p38α compound inhibitory potency is quantitated from dose-response IC50 values or Ki values from p38α/MK2 cascade assays while the substrate selectivity is calculated as a ratio of p38α/PRAK:p38α/MK2 IC50 values. Species compounds of Formula I, described hereinabove, evaluated in this assay, are expected to provide a therapeutic benefit in the treatment of p38 kinase mediated diseases, such as autoimmune diseases and lymphoma.", "note": "Values joined by “and” are separate entries in the source; they are usually repeats but may differ in a detail not shown here. Equal values may be shown once.", "data": [{"smiles": "CC(C)(C)c1nccc(-c2c[nH]c3cc(Cl)c(C(=O)N4CCC(Cc5ccc(F)cc5)CC4)cc23)n1", "note": "[Example 57, (3-(2-tert-Butyl-pyrimidin-4-yl)-6-chloro-1H-indol-5-yl)-(4-(4-fluorobenzyl)-piperidin-1-yl)-methanone]", "values": [{"measurement": "IC50", "result": "2.89 µM and 3.86 µM"}]}]}
